These results are taken from patent US9346769B2, “Tetrazolones as inhibitors of fatty acid synthase” (Infinity Pharmaceuticals, Inc., priority 2010, dated 2016).

The IC50 is the point on the concentration scale where inhibition reaches its midpoint. High values mean weaker potency, low ones greater potency.

In the assay the target is T1, human FASN (Homo sapiens, UniProt P49327).
T1 construct: was purified from SKBR3 cells using procedures modified from those in Jayakumar et al; endogenous in cells; host or cells: SKBR3 human breast cancer cells (ATCC); Endogenous enzyme purified by ammonium sulfate precipitation and a mono Q column
T1 sequence (P49327 whole entry): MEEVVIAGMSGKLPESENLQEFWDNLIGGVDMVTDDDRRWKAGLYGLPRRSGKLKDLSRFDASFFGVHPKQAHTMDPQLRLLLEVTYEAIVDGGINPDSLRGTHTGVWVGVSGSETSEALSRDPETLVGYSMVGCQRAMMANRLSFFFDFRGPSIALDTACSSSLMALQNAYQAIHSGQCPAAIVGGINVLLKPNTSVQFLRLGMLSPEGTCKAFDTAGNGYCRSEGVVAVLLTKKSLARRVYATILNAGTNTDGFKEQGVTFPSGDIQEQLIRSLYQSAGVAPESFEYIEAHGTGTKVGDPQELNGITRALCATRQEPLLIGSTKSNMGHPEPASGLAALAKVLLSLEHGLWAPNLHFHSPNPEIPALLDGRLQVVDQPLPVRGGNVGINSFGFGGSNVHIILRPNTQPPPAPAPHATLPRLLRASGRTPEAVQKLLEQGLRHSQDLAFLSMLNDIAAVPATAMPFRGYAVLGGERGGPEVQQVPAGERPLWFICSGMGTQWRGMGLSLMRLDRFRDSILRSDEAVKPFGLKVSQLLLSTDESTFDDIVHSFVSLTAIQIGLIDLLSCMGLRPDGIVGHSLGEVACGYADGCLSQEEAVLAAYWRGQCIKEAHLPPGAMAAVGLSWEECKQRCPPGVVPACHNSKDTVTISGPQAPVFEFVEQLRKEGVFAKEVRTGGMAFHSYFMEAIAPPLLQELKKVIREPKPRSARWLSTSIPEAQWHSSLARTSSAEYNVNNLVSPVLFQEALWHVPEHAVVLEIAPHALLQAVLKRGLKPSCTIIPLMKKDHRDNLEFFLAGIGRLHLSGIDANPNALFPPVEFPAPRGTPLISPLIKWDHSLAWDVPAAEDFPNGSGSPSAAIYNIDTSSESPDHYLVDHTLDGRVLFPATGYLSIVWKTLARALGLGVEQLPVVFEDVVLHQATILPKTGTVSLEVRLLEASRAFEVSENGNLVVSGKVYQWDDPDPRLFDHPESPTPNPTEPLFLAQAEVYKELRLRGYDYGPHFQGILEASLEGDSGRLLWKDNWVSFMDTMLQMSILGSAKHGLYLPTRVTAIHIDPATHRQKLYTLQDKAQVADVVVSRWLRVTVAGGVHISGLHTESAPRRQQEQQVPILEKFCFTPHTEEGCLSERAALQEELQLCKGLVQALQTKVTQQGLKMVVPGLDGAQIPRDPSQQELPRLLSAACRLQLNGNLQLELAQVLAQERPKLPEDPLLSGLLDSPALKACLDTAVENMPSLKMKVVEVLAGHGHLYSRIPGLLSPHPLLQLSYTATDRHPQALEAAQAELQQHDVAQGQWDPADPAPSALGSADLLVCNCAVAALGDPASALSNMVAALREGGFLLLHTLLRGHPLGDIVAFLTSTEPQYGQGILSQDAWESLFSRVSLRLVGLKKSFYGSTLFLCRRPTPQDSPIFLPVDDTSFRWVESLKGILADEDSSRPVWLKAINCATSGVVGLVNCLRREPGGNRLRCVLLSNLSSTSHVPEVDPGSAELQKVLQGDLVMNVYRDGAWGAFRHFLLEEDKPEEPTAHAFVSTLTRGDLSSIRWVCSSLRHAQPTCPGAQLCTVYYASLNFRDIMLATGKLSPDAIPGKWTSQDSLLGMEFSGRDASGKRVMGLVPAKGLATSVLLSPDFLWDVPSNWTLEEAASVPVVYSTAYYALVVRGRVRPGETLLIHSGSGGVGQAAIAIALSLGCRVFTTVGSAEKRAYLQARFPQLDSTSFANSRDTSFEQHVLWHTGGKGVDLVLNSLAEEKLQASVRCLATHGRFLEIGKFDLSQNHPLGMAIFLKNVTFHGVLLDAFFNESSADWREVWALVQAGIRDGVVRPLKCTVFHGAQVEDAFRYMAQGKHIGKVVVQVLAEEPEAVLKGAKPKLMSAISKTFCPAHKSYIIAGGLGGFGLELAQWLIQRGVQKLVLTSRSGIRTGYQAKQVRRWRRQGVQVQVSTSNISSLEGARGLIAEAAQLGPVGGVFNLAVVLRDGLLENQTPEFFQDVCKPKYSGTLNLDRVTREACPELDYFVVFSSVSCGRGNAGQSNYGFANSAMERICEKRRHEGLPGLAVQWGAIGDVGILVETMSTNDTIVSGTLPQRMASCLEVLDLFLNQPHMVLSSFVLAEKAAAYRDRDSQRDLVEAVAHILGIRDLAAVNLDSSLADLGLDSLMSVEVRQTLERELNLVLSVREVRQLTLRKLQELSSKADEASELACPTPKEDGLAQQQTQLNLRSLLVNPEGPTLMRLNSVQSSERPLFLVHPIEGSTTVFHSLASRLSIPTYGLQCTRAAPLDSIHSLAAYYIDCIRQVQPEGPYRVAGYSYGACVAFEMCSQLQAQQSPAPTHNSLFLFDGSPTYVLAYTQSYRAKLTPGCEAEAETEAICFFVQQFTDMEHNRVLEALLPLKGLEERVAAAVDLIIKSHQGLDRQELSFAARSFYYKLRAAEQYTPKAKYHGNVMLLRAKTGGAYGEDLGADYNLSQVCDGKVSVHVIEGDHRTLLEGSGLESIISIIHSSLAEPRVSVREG
The assay can be described thus: FASN Scintillation Proximity Flashplate Assay. The settings on record: human FASN purified from SKBR3 cells; unstarred symbols. It counts as biochemical. How it is done: Human FASN protein (SEQ ID NO. 1) was purified from SKBR3 cells using procedures modified from those in Jayakumar et al. PNAS 1995, 92:8695-8699. SKBR3 cells were obtained from ATCC and grown in DMEM high glucose medium supplemented with 10% FBS, 1 μg/mL bovine pancreas insulin, 100 U/mL penicillin and 100 µg/mL streptomycin. The confluent cells were trypsinized and washed three times with PBS buffer before frozen in liquid N2 and stored at −80° C. Frozen cells were thawed on ice and resuspended in lysis buffer (25 mM Tris-HCl, pH 7.0, 15 mM NaCl, 1 mM EDTA, and 1 mM DTT) with protease inhibitors. The cells were lysed by sonication, and the cell debris was removed by centrifugation at 20,000 rpm for 30 min. To the supernatant, neutralized saturated ammonium sulfate solution was added to a final concentration of 35%. The solution was left on ice for 1 hr, and the precipitated proteins were harvested by centrifugation at 20,000 rpm for 30 min. The proteins were redissolved in lysis buffer without NaCl and loaded on a mono Q column. Bound proteins were eluted with a linear gradient of NaCl in lysis buffer. Each fraction was analyzed by SDS-PAGE and FASN NADPH consumption assay. The fractions containing FASN were pooled and concentrated to 2-3 mg/mL. Glycerol was added to 20%, and the protein was frozen in liquid N2 and stored at −80° C.
Acetyl-coenzyme A, malonyl-coenzyme A, NADPH, bovine gamma globulin, and ORLISTAT were purchased from Sigma (St. Louis, Mo.). Tris(2-carboxyethyl) phosphine hydrochloride (TCEP) was purchased from Pierce Biotechnologies (Rockford, Ill.). [^3H]-acetyl-coenzyme A was purchased from Moravek Biochemicals (Brea, CA). FlashPlate™ PLUS phospholipid 96-well scintillant coated microplates were purchased from Perkin Elmer Life and Analytical Sciences (Shelton, CT). The method of the FASN Scintillation Proximity FlashPlate assay is similar to that described in Weiss and Glickman Assay Drug Dev Technol 2003, 1:161-6. In a 96-well polypropylene microplate, a dilution series (typical concentrations 60 nM-1.0 mM) of test compounds were prepared in DMSO followed by a 20-fold dilution into FASN assay buffer (50 mM potassium phosphate, pH 7.0, 1.0 mM EDTA, 0.01% NP-40), of which 5.0 μL each was transferred to a FlashPlate® PLUS 96-well plate and mixed with 35 μL FASN assay buffer plus 0.5 mg/mL bovine gamma globulin and 1 mM TCEP. FASN protein (10 μL, 10 nM) was added per well, and the microplate was incubated at 37° C. for 30 min. 10 μL of 20 mM NADPH was added, and the reaction was initiated by addition of […] substrate mixture to final concentrations of 1 nM FASN, 100 μM acetyl-coenzyme A, 6 μCi [^3H]-acetyl-coenzyme A, 300 μM malonyl-coenzyme A, 2 mM NADPH, 0.5 mg/mL bovine gamma globulin, and 1 mM TCEP in a volume of 100 μL per well. Assay plates were incubated for 2 hr at 37° C. and the reaction was stopped with 2 μL of 2.5 mM stock solution of ORLISTAT in DMSO to ˜50 μM. The plates were read in a Wallac 1450 Microbeta Plus liquid scintillation counter (Perkin Elmer, Waltham, Mass.), and counts per minute (CPM) were collected over 2 min. Each inhibitor well CPM was compared to the maximum FASN enzyme activity (Max) CPM and the background (Min) CPM, as measured by omission of FASN enzyme in the background well. % Inhibition values were calculated, and curves were fitted by a four-parameter logistic function to yield IC50 values:
Compounds were assayed as inhibitors of human FASN using the above-described FASN Scintillation Proximity Flashplate Assay (IC50; nM) or FASN NADPH Consumption Assay (*) (IC50; nM). The corresponding activity of the isolated compound is also provided along with the measured mass (ES^+).
Background: In a scintillation proximity assay essentially only radioactivity close to the scintillant gives light.
The molecule `CCN(C(=O)n1nnn(-c2ccccc2OC)c1=O)c1ccc(C(=O)OCc2ccccc2)cc1` returned an IC50 of 15 to 100 nM.
The result for `CCN(C(=O)n1nnn(-c2ccccc2OC)c1=O)c1cc(C(=O)O)ccc1OCCc1ccccc1` reads less than 15 nM; that for `COc1ccc(N(C(=O)n2nnn(-c3ccccc3OC)c2=O)C(C)C)cc1C(=O)O`, 200 to 5000 nM.
The figure for `CCN(C(=O)n1nnn(-c2ccccc2OC)c1=O)c1ccc(OC)c(C(=O)OCc2ccccc2)c1` is less than 15 nM.
Turning to `O=C(O)c1ccc(N(C(=O)n2nnn(-c3c(F)cccc3F)c2=O)C2CCCCC2)cc1O`, the 50% inhibitory concentration (IC50) is less than 15 nM.
`CC(C)N(C(=O)n1nnn(-c2c(F)cccc2F)c1=O)c1cccc(C(=O)O)c1` returned a concentration for half-maximal inhibition (IC50) of 15 to 100 nM.
In turn, `CC(C)N(C(=O)n1nnn(-c2c(F)cccc2F)c1=O)c1ccc(N)c(C(=O)OCc2ccccc2)c1` came in with a half-inhibitory concentration (IC50) of less than 15 nM.
As for `CC(C)N(C(=O)n1nnn(-c2c(F)cccc2F)c1=O)c1ccc(NC(=O)OC(C)(C)C)c(C(=O)O)c1`, the IC50 was less than 15 nM.
The figure for `O=C(O)c1cc(N(C(=O)n2nnn(-c3c(F)cccc3F)c2=O)C2CCCCC2)ccc1O` is less than 15 nM; for `CC(C)N(C(=O)n1nnn(-c2c(F)cccc2F)c1=O)c1ccc(NC(=O)OC(C)(C)C)c(C(=O)OCc2ccccc2)c1` it is less than 15 nM.
Turning to `CC(C)N(C(=O)n1nnn(-c2c(F)cccc2F)c1=O)c1ccc(C(=O)O)cc1F`, the IC50 was less than 15 nM.
The result for `COc1cc(C(=O)O)cc(N(C(=O)n2nnn(-c3c(F)cccc3F)c2=O)C(C)C)c1` reads less than 15 nM; that for `CC(C)N(C(=O)n1nnn(-c2c(F)cccc2F)c1=O)c1ccc(C(=O)OCc2ccccc2)cc1Oc1ccccc1`, less than 15 nM.
The result for `CCC(CC)N(C(=O)n1nnn(-c2c(F)cccc2F)c1=O)c1cccc(C(=O)O)c1` reads 15 to 100 nM; that for `CC(C)N(C(=O)n1nnn(-c2c(F)cccc2F)c1=O)c1ccc(C(=O)OCc2ccccc2)cc1F`, less than 15 nM.
`CC(C)N(C(=O)n1nnn(-c2c(F)cccc2F)c1=O)c1ccc(Cl)c(C(=O)O)c1` registered a concentration for half-maximal inhibition (IC50) of less than 15 nM.
The molecule `CCC(CC)N(C(=O)n1nnn(-c2c(F)cccc2F)c1=O)c1cccc(C(=O)OCc2ccccc2)c1` showed a half-inhibitory concentration (IC50) of less than 15 nM.
The figure for `COc1cc(N(C(=O)n2nnn(-c3c(F)cccc3F)c2=O)C2CCCCC2)ccc1C(=O)O` is less than 15 nM.
The figure for `COc1cc(N(C(=O)n2nnn(-c3c(F)cccc3F)c2=O)C(C)C)ccc1C(=O)O` is less than 15 nM.
For `CC(C)N(C(=O)n1nnn(-c2c(F)cccc2F)c1=O)c1ccc(Cl)c(C(=O)OCc2ccccc2)c1`, the half-inhibitory concentration (IC50) was less than 15 nM.
The result for `O=C(NCc1ccccc1)c1cccc(N(C(=O)n2nnn(-c3c(F)cccc3F)c2=O)C2CCCCC2)c1` reads less than 15 nM.
The result for `COc1cc(OC)c(N(C(=O)n2nnn(-c3c(F)cccc3F)c2=O)C(C)C)cc1C(=O)O` reads 15 to 100 nM.
The figure for `CCN(C(=O)n1nnn(-c2c(Cl)cccc2Cl)c1=O)c1ccc(OC)cc1` is 15 to 100 nM.
`CCN(C(=O)n1nnn(-c2c(Cl)cccc2Cl)c1=O)c1ccc(C(=O)O)c(Cl)c1` yielded a half-maximal inhibitory concentration (IC50) of less than 15 nM.
The figure for `CCN(C(=O)n1nnn(-c2c(Cl)cccc2Cl)c1=O)c1ccc(C(=O)OC)cc1` is 15 to 100 nM.
Molecule `CCN(C(=O)n1nnn(-c2c(Cl)cccc2Cl)c1=O)c1ccc(Cl)c(C(=O)OCc2ccc(OC)cc2)c1` had an IC50 of less than 15 nM.
For the molecule `CCN(C(=O)n1nnn(-c2c(Cl)cccc2Cl)c1=O)c1ccc(C(=O)O)cc1Cl`, the concentration for half-maximal inhibition (IC50) is less than 15 nM.
The figure for `CCN(C(=O)n1nnn(-c2c(Cl)cccc2Cl)c1=O)c1cccc(C(=O)O)c1` is 15 to 100 nM.
The figure for `CCN(C(=O)n1nnn(-c2c(Cl)cccc2Cl)c1=O)c1ccc(C(=O)O)cc1` is less than 15 nM.
The result for `CCN(C(=O)n1nnn(-c2c(F)cccc2OC)c1=O)c1ccccc1Oc1ccccc1` reads 15 to 100 nM; that for `CCC(C)N(C(=O)n1nnn(-c2c(F)cccc2OC)c1=O)c1cccc(C(=O)O)c1` (centres unmarked), less than 15 nM.
Consider `COc1ccc(N(C(=O)n2nnn(-c3c(F)cccc3OC)c2=O)C2CCCC2)cc1C(=O)O`, for which the IC50 was less than 15 nM.
The figure for `CCN(C(=O)n1nnn(-c2c(F)cccc2OC)c1=O)c1ccc(OC)c(C(=O)O)c1` is 15 to 100 nM.
The figure for `COc1ccc(N(C(=O)n2nnn(-c3c(F)cccc3OC)c2=O)C2CCCC2)cc1C(=O)OCc1ccccc1` is less than 15 nM.
The figure for `COc1cccc(F)c1-n1nnn(C(=O)N(c2ccccc2)C2CCCCC2)c1=O` is 15 to 100 nM; for `CCN(C(=O)n1nnn(-c2c(F)cccc2OC)c1=O)c1ccccc1OCCc1ccccc1` it is less than 15 nM; for `CCN(C(=O)n1nnn(-c2c(F)cccc2OC)c1=O)c1ccc(C(=O)O)c(OC)c1` it is 15 to 100 nM.
`COc1ccc(COC(=O)c2cc(N(C(=O)n3nnn(-c4c(F)cccc4OC)c3=O)C(C)C)ccc2OCCc2ccccc2)cc1`: the half-maximal inhibitory concentration (IC50) is less than 15 nM.
The figure for `COc1cccc(F)c1-n1nnn(C(=O)N(c2cccc(F)c2)C(C)(C)C)c1=O` is 200 to 5000 nM; for `COc1ccc(N(C(=O)n2nnn(-c3c(F)cccc3OC)c2=O)C2CCCCC2)cc1C(=O)O` it is less than 15 nM.
As to `COc1cccc(F)c1-n1nnn(C(=O)N(c2cccc(C(=O)O)c2)C(C)C)c1=O`, the half-inhibitory concentration (IC50) was in the range of 15 to 100 nM.
The figure for `COc1ccc(C(=O)OCc2ccccc2)cc1N(C(=O)n1nnn(-c2c(F)cccc2OC)c1=O)C(C)C` is 15 to 100 nM; for `COc1ccc(C(=O)O)cc1N(C(=O)n1nnn(-c2c(F)cccc2OC)c1=O)C(C)C` it is less than 15 nM.
The result for `COc1cccc(F)c1-n1nnn(C(=O)N(CC(C)(C)C)c2cccc(C(=O)O)c2)c1=O` reads 200 to 5000 nM; that for `COc1cccc(F)c1-n1nnn(C(=O)N(c2ccccc2)C2CCCC2)c1=O`, less than 15 nM.
With `COc1cccc(F)c1-n1nnn(C(=O)N(c2ccc(OCCc3ccccc3)c(C(=O)O)c2)C(C)C)c1=O`, the IC50 was 15 to 100 nM.
The result for `CCN(C(=O)n1nnn(-c2c(F)cccc2OC)c1=O)c1cc(C(=O)O)ccc1OC(C)C` reads 15 to 100 nM.
The figure for `CCN(C(=O)n1nnn(-c2c(F)cccc2OC)c1=O)c1cc(Oc2ccc(C(=O)OCc3ccccc3)cc2)ccc1C` is 200 to 5000 nM; for `CCN(C(=O)n1nnn(-c2c(F)cccc2OC)c1=O)c1cccc(Oc2cccc(C(=O)O)c2)c1` it is less than 15 nM; for `COc1cccc(F)c1-n1nnn(C(=O)N(c2cccc(C(=O)O)c2)C(C)(C)C)c1=O` it is 200 to 5000 nM.
The result for `CCN(C(=O)n1nnn(-c2c(F)cccc2OC)c1=O)c1cc(Oc2ccc(C(=O)O)cc2)ccc1C` reads 15 to 100 nM; that for `COc1ccc(N(C(=O)n2nnn(-c3c(F)cccc3OC)c2=O)C(C)C)cc1C(=O)OCc1ccccc1`, less than 15 nM.
`COc1ccc(N(C(=O)n2nnn(-c3c(F)cccc3OC)c2=O)C(C)C)cc1C(=O)O` registered an IC50 of 15 to 100 nM.
The result for `COc1cccc(F)c1-n1nnn(C(=O)N(c2cccc(C(=O)OCc3ccccc3)c2)C2CC2)c1=O` reads less than 15 nM; that for `CCN(C(=O)n1nnn(-c2c(F)cccc2OC)c1=O)c1cc(C(=O)O)ccc1OCCc1ccccc1`, less than 15 nM.
In turn, `COc1cccc(F)c1-n1nnn(C(=O)N(c2ccccc2)C2CCOCC2)c1=O` showed an IC50 of 15 to 100 nM.
The figure for `CCCCOc1ccc(C(=O)O)cc1N(CC)C(=O)n1nnn(-c2c(F)cccc2OC)c1=O` is less than 15 nM; for `COc1cccc(F)c1-n1nnn(C(=O)N(CC(C)(C)C)c2cccc(C(=O)OCc3ccccc3)c2)c1=O` it is 15 to 100 nM.
The figure for `COc1cccc(F)c1-n1nnn(C(=O)N(c2cccc(C(=O)OCc3ccccc3)c2)C(C)(C)C)c1=O` is 200 to 5000 nM.
